From US20110097274A1, “Carbon-11 and fluorine-18 labeled radioligands for positron emission tomography (PET) imaging for the brain serotonin transporters” (priority 2002, published 2011)
“And” between values parts separate entries of the source, which are not always exact repeats. Identical values can stand only once. Like-named read-outs stand apart in the source and are kept apart here.

What was measured:
[1] = Plasma free fraction (f1) and filter retention by ultrafiltration; assay type: in vitro ADME, baboon; conditions: mean ± SD of four experiments
Procedure: Plasma and ultrafiltrate activities were counted, and f1 was calculated as the ratio of ultrafiltrate activity to total plasma activity. Triplicate aliquots of the radioligand in pH 7.4 Tris buffer were also processed to determine the filter retention of free tracer.

[2] = Baboon PET imaging: brain uptake, kinetic analysis and SERT parameters; assay type: in vivo; conditions: male, baboon, intravenous, baboons
Outline: (§1)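 Two isoflurane-anaesthetised adult male baboons, each radioligand tested twice (test-retest); i.v. bolus, 91 min 3D emission scan with arterial sampling, MRI-defined regions. Brain uptake as % ID g^−1, with peak time and washout; VT from one-tissue compartment model (K1/k2) using arterial plasma input.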

[3] = test system: SERT; test: as above; assay type: in vivo; conditions: for Kp: male, baboon, brain, intravenous
Outline: as §1

[4] = BP = VT ROI − VT CER, baboons, mean ± SD of four experiments
[5] = Mean ± SD of four experiments in two baboons
[6] = baboon A, experiments of FIGS. 5-9 (FIG. 10)
[7] = baboons, mean ± SD of four experiments
[8] = last scan 90 minutes, baboons, mean ± SD of four experiments
[9] = one-tissue compartment model, baboons, mean ± SD of four experiments

SMILES: CN(C)Cc1ccccc1Sc1ccc(Br)cc1N [[^11C]DAPA]
- Filter retention ([1]; activity remaining on filter, radioligand dissolved in saline): 77.9 ± 6.6%
- fraction unbound at 20 min ([1]; male, monkey, baboon plasma, ultrafiltration): 0.018 ± 0.005
- Kp ([2]; brain regions (average of all regions), read-out: VT, average of all regions and all animals): 47.8 ± 16
- Kp ([2]; cerebellum, one-tissue compartment model, mean ± SD of four experiments, read-out: VT Cerebellum (VT CER, nonspecific distribution volume)): 29.3 ± 2.9
- Binding potential Cingulate Cortex [3, 4]: 7.9 ± 1.0 mL/g
- Binding potential Hippocampus [3, 4]: 15.5 ± 0.7 mL/g
- Binding potential Midbrain [3, 4]: 40.0 ± 4.3 mL/g
- Binding potential Occipital Cortex [3, 4]: 5.7 ± 1.9 mL/g
- Binding potential Striatum [3, 4]: 22.9 ± 0.9 mL/g
- Binding potential Temporal Cortex [3, 4]: 11.2 ± 3.3 mL/g
- Binding potential Thalamus [3, 4]: 45.1 ± 1.8 mL/g
- Equilibrium specific to non-specific partition coefficient (V3″) Cingulate Cortex ([3]; Baboon A, single experiment): 0.29 and 0.26
- Equilibrium specific to non-specific partition coefficient (V3″) Hippocampus ([3]; Baboon A, single experiment): 0.54 and 0.48
- Equilibrium specific to non-specific partition coefficient (V3″) Midbrain ([3]; Baboon A, single experiment): 1.41 and 1.37
- Equilibrium specific to non-specific partition coefficient (V3″) Occipital Cortex ([3]; Baboon A, single experiment): 0.22 and 0.25
- Equilibrium specific to non-specific partition coefficient (V3″) Striatum ([3]; Baboon A, single experiment): 0.73 and 0.72
- Equilibrium specific to non-specific partition coefficient (V3″) Temporal Cortex ([3]; Baboon A, single experiment): 0.48 and 0.42
- Equilibrium specific to non-specific partition coefficient (V3″) Thalamus ([3]; Baboon A, single experiment): 1.49 and 1.40
- Equilibrium specific to non-specific partition coefficient (V3″) Cingulate Cortex ([3]; Baboon B, single experiment): 0.25 and 0.27
- Equilibrium specific to non-specific partition coefficient (V3″) Hippocampus ([3]; Baboon B, single experiment): 0.56 and 0.54
- Equilibrium specific to non-specific partition coefficient (V3″) Midbrain ([3]; Baboon B, single experiment): 1.42 and 1.27
- Equilibrium specific to non-specific partition coefficient (V3″) Occipital Cortex ([3]; Baboon B, single experiment): 0.15
- Equilibrium specific to non-specific partition coefficient (V3″) Striatum ([3]; Baboon B, single experiment): 0.91 and 0.79
- Equilibrium specific to non-specific partition coefficient (V3″) Temporal Cortex ([3]; Baboon B, single experiment): 0.30 and 0.32
- Equilibrium specific to non-specific partition coefficient (V3″) Thalamus ([3]; Baboon B, single experiment): 1.81 and 1.52
- Equilibrium specific to non-specific partition coefficient (V3″) Cingulate Cortex [3, 5]: 0.27 ± 0.02
- Equilibrium specific to non-specific partition coefficient (V3″) Hippocampus [3, 5]: 0.53 ± 0.04
- Equilibrium specific to non-specific partition coefficient (V3″) Midbrain [3, 5]: 1.37 ± 0.07
- Equilibrium specific to non-specific partition coefficient (V3″) Occipital Cortex [3, 5]: 0.19 ± 0.05
- Equilibrium specific to non-specific partition coefficient (V3″) Striatum [3, 5]: 0.79 ± 0.09
- Equilibrium specific to non-specific partition coefficient (V3″) Temporal Cortex [3, 5]: 0.38 ± 0.09
- Equilibrium specific to non-specific partition coefficient (V3″) Thalamus [3, 5]: 1.55 ± 0.18
- Thalamus to cerebellum ratio equal to true equilibrium ratio (V3″+1) [3, 6]: 2.49
- Time at which measured thalamus to cerebellum ratio equals the true equilibrium ratio (estimate of peak specific binding) [3, 6]: 80 min
- K1, average of all regions and all animals ([3]; baboons): 0.85 ± 0.23 mL/g/min
- k2, average of all regions and all animals ([3]; baboons): 0.020 ± 0.008 min⁻¹
- V3″ expressed in percentage of [^11C]McN 5652 V3″ ([3]; baboons, combining all regions): 151±18%
- Mean regional peak uptake time ([3]; baboons, mean of all regions): 50 ± 20 min
- Mean regional wash-out (% decrease between peak time and last scan) ([3]; baboons, mean of all regions): 12±11%
- Cingulate Cortex to cerebellum activity ratio at 90 minutes [3, 7]: 1.27 ± 0.05
- Hippocampus to cerebellum activity ratio at 90 minutes [3, 7]: 1.42 ± 0.13
- Midbrain to cerebellum activity ratio at 90 minutes [3, 7]: 2.05 ± 0.31
- Occipital Cortex to cerebellum activity ratio at 90 minutes [3, 7]: 1.19 ± 0.08
- Regional uptake peak time Cerebellum [3, 7]: 24 ± 10 min
- Regional uptake peak time Cingulate Cortex [3, 7]: 36 ± 8 min
- Regional uptake peak time Hippocampus [3, 7]: 64 ± 15 min
- Regional uptake peak time Midbrain [3, 7]: 71 ± 13 min
- Regional uptake peak time Occipital Cortex [3, 7]: 36 ± 8 min
- Regional uptake peak time Striatum [3, 7]: 51 ± 19 min
- Regional uptake peak time Temporal Cortex [3, 7]: 49 ± 10 min
- Regional uptake peak time Thalamus [3, 7]: 69 ± 13 min
- Striatum to cerebellum activity ratio at 90 minutes [3, 7]: 1.69 ± 0.12
- Temporal Cortex to cerebellum activity ratio at 90 minutes [3, 7]: 1.35 ± 0.16
- Thalamus to cerebellum activity ratio at 90 minutes [3, 7]: 2.15 ± 0.30
- Total brain uptake at 45 min ([3]; baboons, region encompassing the entire brain): 0.018±0.002 % ID g^−1
- Regional activity wash-out: % decrease from peak to last scan, Cerebellum [3, 8]: 29 ± 14%
- Regional activity wash-out: % decrease from peak to last scan, Cingulate Cortex [3, 8]: 19 ± 9%
- Regional activity wash-out: % decrease from peak to last scan, Hippocampus [3, 8]: 4 ± 5%
- Regional activity wash-out: % decrease from peak to last scan, Midbrain [3, 8]: 2 ± 3%
- Regional activity wash-out: % decrease from peak to last scan, Occipital Cortex [3, 8]: 18 ± 7%
- Regional activity wash-out: % decrease from peak to last scan, Striatum [3, 8]: 8 ± 8%
- Regional activity wash-out: % decrease from peak to last scan, Temporal Cortex [3, 8]: 11 ± 5%
- Regional activity wash-out: % decrease from peak to last scan, Thalamus [3, 8]: 3 ± 4%
- Kp ([3]; cingulate cortex, one-tissue compartment model, baboons, mean ± SD of four experiments, read-out: VT Cingulate Cortex): 37.1 ± 3.8
- Kp ([3]; hippocampus, one-tissue compartment model, baboons, mean ± SD of four experiments, read-out: VT Hippocampus): 44.7 ± 3.4
- Kp ([3]; midbrain, one-tissue compartment model, baboons, mean ± SD of four experiments, read-out: VT Midbrain): 69.2 ± 7
- Kp ([3]; occipital cortex, one-tissue compartment model, baboons, mean ± SD of four experiments, read-out: VT Occipital Cortex): 35 ± 4.8
- Kp ([3]; striatum, one-tissue compartment model, baboons, mean ± SD of four experiments, read-out: VT Striatum): 52.1 ± 3
- Kp ([3]; temporal cortex, one-tissue compartment model, baboons, mean ± SD of four experiments, read-out: VT Temporal Cortex): 40.5 ± 6
- Kp ([3]; thalamus, one-tissue compartment model, baboons, mean ± SD of four experiments, read-out: VT Thalamus): 74.4 ± 3.1
- K1 Cerebellum [3, 9]: 0.99 ± 0.29 mL/g/min
- K1 Cingulate Cortex [3, 9]: 0.91 ± 0.24 mL/g/min
- K1 Hippocampus [3, 9]: 0.67 ± 0.16 mL/g/min
- K1 Midbrain [3, 9]: 0.86 ± 0.27 mL/g/min
- K1 Occipital Cortex [3, 9]: 0.83 ± 0.17 mL/g/min
- K1 Striatum [3, 9]: 0.90 ± 0.26 mL/g/min
- K1 Temporal Cortex [3, 9]: 0.78 ± 0.18 mL/g/min
- K1 Thalamus [3, 9]: 0.89 ± 0.26 mL/g/min
- K2 Cerebellum [3, 9]: 0.034 ± 0.009 min⁻¹
- K2 Cingulate Cortex [3, 9]: 0.025 ± 0.006 min⁻¹
- K2 Hippocampus [3, 9]: 0.015 ± 0.003 min⁻¹
- K2 Midbrain [3, 9]: 0.012 ± 0.003 min⁻¹
- K2 Occipital Cortex [3, 9]: 0.024 ± 0.005 min⁻¹
- K2 Striatum [3, 9]: 0.017 ± 0.005 min⁻¹
- K2 Temporal Cortex [3, 9]: 0.019 ± 0.004 min⁻¹
- K2 Thalamus [3, 9]: 0.012 ± 0.004 min⁻¹
